Measured values as given in patent US20180071280A1, “MODULATORS OF CELL DEATH PROCESSES” (URIFER LTD., priority 2015, published 2018).

What was measured:
Assay type in all cases: cell-based, human
SW620 CC cells = assay: MultiTox-Fluor cytotoxicity assay in SW620 CC cells
Description: Cell lines (HCT116, ht29, Rko, Hep3B, SW48, SW620, MDA-MB-231, PANC-1, su.86.86, Hfb) were obtained from the American Type Culture Collection (ATCC). Cell type authentication was carried out by microscope and DNA profiles using short tandem repeat analysis. Cells were grown in Minimum Essential Medium (MEM) containing 10% heat-inactivated Fetal Bovine Serum (FBS) or in Dulbecco's Modified Eagle's Medium (DMEM) containing 10% FBS, where specified, at 37° C. with 5% CO2. In general, the in-vitro experiments were carried out with 2. μM 0260 added into the growth medium. Dose response experiments included increasing 0260 concentrations. Cell death levels were determined using the MultiTox-Fluor Multiplex Cytotoxicity Assay (G9201, Promega, USA). In brief, 10,000 cells were seeded in black bottom 96 wells plate and were allowed to attach to the plate bottom for 16 h before the administration of various 0260 concentration in each well. Cell death levels were determined according to the manufacturer's protocol.
Cells death level was determined using the MultiTox-Fluor Multiplex Cytotoxicity Assay (G9201, Promega, USA) according to the manufacturer's protocol.

[1] = tested on: malignant cells (CC and MDA cells); assay: Cellular ATP level (HPLC) in malignant cells; details: SW620, co-treatment with 0260
Description: Quantification of intracellular ATP was carried out using HPLC as previously described.
Cells were suspended in 400 μl cold 0.4M perchloric acid solution, incubated on ice for 15 min, centrifuged at 12,000×g, neutralized with 4M K2CO3 to pH 7.5, incubated for 15 min on ice and concentrated (10,000×g). Chromatographic analyses were performed using Hitachi Elite LaChrom system at 30° C. applying supernatants to SUPELCOSIL™ LC-18-S HPLC Column (5 μm particle size, L×I.D. 25 cm×2.1 mm), flow rate 0.2 mL/min under isocratic elution conditions (50 mM potassium phosphate, 100 mM triethylamine, pH 6.5 (adjusted with phosphoric acid)):Acetonitrile (98.5:1.5)). Each analysis cycle was set to 30 min, chromatographic flow was monitored at 260 nm and integrated using EZChrom Elite Software.

CC cells = assay: Autophagy in CC cells (TEM, LC3 immuno-staining, WB); details: co-treatment with 0260
Description: (§1) WB analyses were carried out as previously described before. In brief, cells were lysed in RIPA buffer mixed with protease inhibitors and separated on SDS-PAGE gel, transferred to PVDF membrane treated with 5% skim milk to exclude non-specific background and incubated with a primary antibody over-night. The membrane was incubated for 1 h with a secondary antibody conjugated to Horseradish Peroxidase (HRP). The protein-antibody complex was visualized using the SuperSignal West Pico Chemiluminescent Substrate (Thermo scientific, USA).
Cells were fixed with 4% paraformaldehyde (30 min) and incubated with Permeabilization Solution containing 0.1% Triton X-100 (Sigma-Aldrich, Israel) in PBS at room temperature for 1 h. Nonspecific binding was blocked with PBS containing 10% fetal bovine serum for 1 h at room temperature. Cells were incubated with specific antibodies diluted 1:100 overnight at 4° C. Cells were washed (5 min) in PBS containing 0.2% Tween-20 (Sigma-Aldrich, Israel) to remove non-specific binding. Bound primary antibodies were detected by Alexa Fluor® 488 goat anti-mouse IgG antibody or Alexa Fluor® 594 goat anti-rabbit IgG antibody (Molecular Probes, Invitrogen, U.K.). Nuclei were visualized by incubation with Hoechst 33342 solution for 10 min (1:500). Nonspecific staining, as determined by binding to the secondary antibody only, was negligible. The immunostained slides were examined under the fluorescence microscope AxioimagerZ1 (Zeiss, Germany) or confocal fluorescence microscope (Olympus-FV1000).
Cells were grown in MEM or DMEM, washed twice with PBS and fixed for 5 minutes in Karnovsky fixative (2.5% glutaraldehyde, 2.5% paraformaldehyde in cacodylate buffer pH 7.4) on the tissue culture plate. Cells were then harvested, and transferred to 1.5 ml tube for further 1 h fixation at room temperature. The cells were then stored O.N at 4C° after which the samples were washed in 0.1 M cacodylate buffer and post-fixed with 1% OsO4 in 0.1 M sodium cacodylate buffer (Sigma-Aldrich, Israel) for 1 h. […]

PARP-1 = PARP-1 poly-ADP-ribosylation activity in CC cells (WB); details: co-treatment with 0260
Description: as §1

Structure (SMILES)	death levels of 0260 treated cells with autophagy inhibitor (SW620 CC cells; SW620, co-treatment with 0260)	ATP level in 0260 treated cells with autophagy inhibitor [1]	decrease of 0260-induced death (SW620 CC cells; CC cells, co-treatment with 0260)	induced autophagy with PARP-1 inhibition (LC3II to LC3 I ratio) (CC cells)	0260-induced poly-ADP-ribosylation activity with PARP-1 inhibitor (PARP-1)
Cn1cnc(N)c2ncnc1-2 [3-MA, 3-Methyladenine, reference compound]	reduced death levels	almost completely restored the ATP level			
NC(=O)c1cccc(N)c1 [3AB, 3-Aminobenzamide, reference compound]			50%	decreased LC3II to LC3 I ratio	abolished
